Assay results: US20220088016A1, “CANCER TREATMENT USING MULTI-TARGETED KINASE INHIBITOR IN COMBINATION OF PROTEIN KINASE BIOMARKERS” (ZHEJIANG CROWNMAB BIOTECH CO. LTD., priority 2019, published 2022)

What was measured:
TRKB = TRKB (Homo sapiens, UniProt Q16620); assay: Kinase profiling; format: binding; settings: read-out: % Ctrl @ 1000 nM
ADCK3 = ADCK3 (Homo sapiens, UniProt Q8NI60); assay: Kinase profiling; format: binding; settings: read-out: % Ctrl @ 1000 nM
DCAMKL2 = DCAMKL2 (Homo sapiens, UniProt Q8N568); assay: Kinase profiling; format: binding; settings: read-out: % Ctrl @ 1000 nM
DAPK2 = DAPK2 (Homo sapiens, UniProt Q9UIK4); assay: Kinase profiling; format: binding; settings: read-out: % Ctrl @ 1000 nM
[1] = target: ABL1 (Q252H)-phosphorylated (Homo sapiens, UniProt P00519, Q252H); assay: Kinase profiling; format: binding; settings: read-out: % Ctrl @ 1000 nM
AURKA = AURKA (Homo sapiens, UniProt O14965); assay: Kinase profiling; format: binding; settings: read-out: % Ctrl @ 1000 nM
[2] = test system: CD3 (T cell surface marker); assay: CD3 IHC test in MC-38 tumor; format: in vivo, mouse; settings: MC-38 tumors; vs vehicle group
Experimental: (§1) MC38 tumor tissues were collected at the end of the in vivo efficacy trial. The tumor tissue was then embedded in paraffin. The expression of CD3/CD4/CD8/F4-80 were tested by immunohistochemistry stain.

[3] = target: RPS6KA5 (Kin.Dom.1-N-terminal) (Homo sapiens, UniProt O75582); assay: Kinase profiling; format: binding; settings: read-out: % Ctrl @ 1000 nM
WNK4 = WNK4 (Homo sapiens, UniProt Q96J92); assay: Kinase profiling; format: binding; settings: read-out: % Ctrl @ 1000 nM
MRCKB = target: T1, MRCKB (Homo sapiens, UniProt Q9Y5S2); assay: Kinase profiling; format: binding; settings: read-out: % Ctrl @ 1000 nM
T1 construct: T7 phage fusion (stated for most kinases of the panel only); made in house; host or cells: T7 phage in E. coli (BL21-derived) or HEK-293 cells

YANK2 = YANK2 (Homo sapiens, UniProt Q9NY57); assay: Kinase profiling; format: binding; settings: read-out: % Ctrl @ 1000 nM
EPHA8 = EPHA8 (Homo sapiens, UniProt P29322); assay: Kinase profiling; format: binding; settings: read-out: % Ctrl @ 1000 nM
ERK3 = ERK3 (Homo sapiens, UniProt Q16659); assay: Kinase profiling; format: binding; settings: read-out: % Ctrl @ 1000 nM
AURKC = AURKC (Homo sapiens, UniProt Q9UQB9); assay: Kinase profiling; format: binding; settings: read-out: % Ctrl @ 1000 nM
ACVR2B = ACVR2B (Homo sapiens, UniProt Q13705); assay: Kinase profiling; format: binding; settings: read-out: % Ctrl @ 1000 nM
DDR1 = DDR1 (Homo sapiens, UniProt Q08345); assay: Kinase profiling; format: binding; settings: read-out: % Ctrl @ 1000 nM
MKNK2 = target: T2, MKNK2 (Homo sapiens, UniProt Q9HBH9); assay: Kinase profiling; format: binding; settings: read-out: % Ctrl @ 1000 nM
T2 construct: T7 phage fusion (stated for most kinases of the panel only); made in house; host or cells: T7 phage in E. coli (BL21-derived) or HEK-293 cells

SYK = SYK (Homo sapiens, UniProt P43405); assay: Kinase profiling; format: binding; settings: read-out: % Ctrl @ 1000 nM
NEK3 = target: T3, NEK3 (Homo sapiens, UniProt P51956); assay: Kinase profiling; format: binding; settings: read-out: % Ctrl @ 1000 nM
T3 construct: T7 phage fusion (said for most assays); made in house

KIT (V559D, V654A) = KIT (V559D, V654A) (Homo sapiens, UniProt P10721, V559D/V654A); assay: Kinase profiling; format: binding; settings: read-out: % Ctrl @ 1000 nM
HUNK = HUNK (Homo sapiens, UniProt P57058); assay: Kinase profiling; format: binding; settings: read-out: % Ctrl @ 1000 nM
MAP3K15 = MAP3K15 (Homo sapiens, UniProt Q6ZN16); assay: Kinase profiling; format: binding; settings: read-out: % Ctrl @ 1000 nM
RIPK2 = RIPK2 (Homo sapiens, UniProt O43353); assay: Kinase profiling; format: binding; settings: read-out: % Ctrl @ 1000 nM
IKK-alpha = IKK-alpha (Homo sapiens, UniProt O15111); assay: Kinase profiling; format: binding; settings: read-out: % Ctrl @ 1000 nM
ULK1 = ULK1 (Homo sapiens, UniProt O75385); assay: Kinase profiling; format: binding; settings: read-out: % Ctrl @ 1000 nM
MET = target: T4, MET (Homo sapiens, UniProt P08581); assay: Kinase profiling; format: binding; settings: read-out: % Ctrl @ 1000 nM
T4 construct: T7 phage fusion (stated for most kinases of the panel only); made in house; host or cells: T7 phage in E. coli (BL21-derived) or HEK-293 cells

MARK2 = MARK2 (Homo sapiens, UniProt Q7KZI7); assay: Kinase profiling; format: binding; settings: read-out: % Ctrl @ 1000 nM
PRKD2 = PRKD2 (Homo sapiens, UniProt Q9BZL6); assay: Kinase profiling; format: binding; settings: read-out: % Ctrl @ 1000 nM
[4] = test system: CD4 (T cell surface marker); assay: CD4 IHC test in MC-38 tumor; format: in vivo, mouse; settings: MC-38 tumors; vs vehicle group
Experimental: as §1

CDKL3 = CDKL3 (Homo sapiens, UniProt Q8IVW4); assay: Kinase profiling; format: binding; settings: read-out: % Ctrl @ 1000 nM
p38-gamma = p38-gamma (Homo sapiens, UniProt P53778); assay: Kinase profiling; format: binding; settings: read-out: % Ctrl @ 1000 nM
CLK2 = CLK2 (Homo sapiens, UniProt P49760); assay: Kinase profiling; format: binding; settings: read-out: % Ctrl @ 1000 nM
BRK = BRK (Homo sapiens, UniProt Q13882); assay: Kinase profiling; format: binding; settings: read-out: % Ctrl @ 1000 nM
CLK3 = CLK3 (Homo sapiens, UniProt P49761); assay: Kinase profiling; format: binding; settings: read-out: % Ctrl @ 1000 nM
PLK4 = PLK4 (Homo sapiens, UniProt O00444); assay: Kinase profiling; format: binding; settings: read-out: % Ctrl @ 1000 nM
CSNK1E = CSNK1E (Homo sapiens, UniProt P49674); assay: Kinase profiling; format: binding; settings: read-out: % Ctrl @ 1000 nM
FGFR3 (G697C) = FGFR3 (G697C) (Homo sapiens, UniProt P22607, G697C); assay: Kinase profiling; format: binding; settings: read-out: % Ctrl @ 1000 nM
PIK3CA (E545A) = PIK3CA (E545A) (Homo sapiens, UniProt P42336, E545A); assay: Kinase profiling; format: binding; settings: read-out: % Ctrl @ 1000 nM

PLK4, sequence (O00444 whole entry): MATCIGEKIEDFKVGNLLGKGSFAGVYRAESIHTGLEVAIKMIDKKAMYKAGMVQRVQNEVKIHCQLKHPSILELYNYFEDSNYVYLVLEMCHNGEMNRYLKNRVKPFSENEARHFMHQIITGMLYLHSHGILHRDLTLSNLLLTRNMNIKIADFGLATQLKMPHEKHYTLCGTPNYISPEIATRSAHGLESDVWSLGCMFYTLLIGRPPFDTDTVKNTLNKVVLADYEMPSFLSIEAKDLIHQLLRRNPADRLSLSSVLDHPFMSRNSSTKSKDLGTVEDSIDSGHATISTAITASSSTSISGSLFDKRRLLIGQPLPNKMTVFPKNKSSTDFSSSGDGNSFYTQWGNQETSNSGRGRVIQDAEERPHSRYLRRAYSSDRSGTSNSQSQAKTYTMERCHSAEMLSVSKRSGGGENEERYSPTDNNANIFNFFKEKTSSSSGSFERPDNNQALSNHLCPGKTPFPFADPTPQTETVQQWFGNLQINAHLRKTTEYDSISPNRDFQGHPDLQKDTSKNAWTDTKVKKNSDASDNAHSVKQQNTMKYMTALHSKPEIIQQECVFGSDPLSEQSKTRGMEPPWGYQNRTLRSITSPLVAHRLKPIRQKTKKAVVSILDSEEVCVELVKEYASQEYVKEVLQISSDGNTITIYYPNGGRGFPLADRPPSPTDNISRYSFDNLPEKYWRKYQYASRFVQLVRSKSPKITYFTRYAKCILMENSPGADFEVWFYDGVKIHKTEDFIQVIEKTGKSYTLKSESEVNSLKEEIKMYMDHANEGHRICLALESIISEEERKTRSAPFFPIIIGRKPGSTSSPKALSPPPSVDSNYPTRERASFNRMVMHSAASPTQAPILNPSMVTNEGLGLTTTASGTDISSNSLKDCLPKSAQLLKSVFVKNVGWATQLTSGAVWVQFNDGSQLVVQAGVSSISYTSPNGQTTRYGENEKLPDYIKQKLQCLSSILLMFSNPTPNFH
DAPK2, sequence (Q9UIK4 whole entry): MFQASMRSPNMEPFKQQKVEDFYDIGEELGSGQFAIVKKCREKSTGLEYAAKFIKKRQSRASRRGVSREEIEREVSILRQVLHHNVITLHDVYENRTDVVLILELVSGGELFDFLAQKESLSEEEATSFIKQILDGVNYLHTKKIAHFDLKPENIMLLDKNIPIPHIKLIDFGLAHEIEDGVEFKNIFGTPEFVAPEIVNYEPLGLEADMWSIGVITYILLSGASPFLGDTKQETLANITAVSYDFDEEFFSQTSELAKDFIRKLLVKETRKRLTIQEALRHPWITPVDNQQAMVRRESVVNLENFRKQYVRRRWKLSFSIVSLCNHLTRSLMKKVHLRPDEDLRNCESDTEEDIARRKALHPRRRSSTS
CLK3, sequence (P49761 whole entry): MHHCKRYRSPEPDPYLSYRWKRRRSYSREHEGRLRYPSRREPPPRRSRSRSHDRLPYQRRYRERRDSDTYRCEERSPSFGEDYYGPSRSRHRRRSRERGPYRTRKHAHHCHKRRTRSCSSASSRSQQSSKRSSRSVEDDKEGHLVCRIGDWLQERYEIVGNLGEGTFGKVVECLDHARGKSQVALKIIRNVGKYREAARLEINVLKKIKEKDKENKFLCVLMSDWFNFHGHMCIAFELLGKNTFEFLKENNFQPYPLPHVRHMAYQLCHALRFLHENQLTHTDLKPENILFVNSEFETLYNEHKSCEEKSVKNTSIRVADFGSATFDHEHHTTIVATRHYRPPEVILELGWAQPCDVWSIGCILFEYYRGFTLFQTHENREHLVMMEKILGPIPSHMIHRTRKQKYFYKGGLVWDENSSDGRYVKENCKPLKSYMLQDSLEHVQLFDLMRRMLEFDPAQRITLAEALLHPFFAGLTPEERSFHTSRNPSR
KIT (V559D, V654A), sequence (P10721 26-976 V559D/V654A): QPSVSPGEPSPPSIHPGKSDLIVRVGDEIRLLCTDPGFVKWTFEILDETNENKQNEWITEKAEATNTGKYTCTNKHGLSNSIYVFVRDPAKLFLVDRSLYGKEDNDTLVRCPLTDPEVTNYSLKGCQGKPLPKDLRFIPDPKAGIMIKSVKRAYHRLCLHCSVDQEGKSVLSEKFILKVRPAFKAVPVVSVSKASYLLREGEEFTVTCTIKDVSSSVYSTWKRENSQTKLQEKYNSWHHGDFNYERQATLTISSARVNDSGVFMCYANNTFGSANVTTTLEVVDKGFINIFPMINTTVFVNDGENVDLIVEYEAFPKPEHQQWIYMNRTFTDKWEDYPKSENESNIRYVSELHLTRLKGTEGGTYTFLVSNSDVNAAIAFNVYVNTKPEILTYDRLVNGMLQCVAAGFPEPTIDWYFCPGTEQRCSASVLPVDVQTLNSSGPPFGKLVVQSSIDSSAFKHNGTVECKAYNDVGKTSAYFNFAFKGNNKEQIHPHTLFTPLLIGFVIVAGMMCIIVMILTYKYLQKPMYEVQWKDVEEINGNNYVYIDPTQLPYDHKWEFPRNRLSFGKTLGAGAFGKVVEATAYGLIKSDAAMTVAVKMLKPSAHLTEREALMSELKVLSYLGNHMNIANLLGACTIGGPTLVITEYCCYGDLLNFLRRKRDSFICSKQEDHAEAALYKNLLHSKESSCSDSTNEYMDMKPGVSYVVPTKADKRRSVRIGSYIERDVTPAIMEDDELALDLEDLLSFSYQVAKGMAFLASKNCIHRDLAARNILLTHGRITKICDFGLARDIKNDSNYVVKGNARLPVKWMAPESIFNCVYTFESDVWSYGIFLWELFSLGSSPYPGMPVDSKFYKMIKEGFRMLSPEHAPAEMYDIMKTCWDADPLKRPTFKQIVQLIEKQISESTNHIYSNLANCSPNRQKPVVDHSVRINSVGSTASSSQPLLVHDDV
AURKA, sequence (O14965 whole entry): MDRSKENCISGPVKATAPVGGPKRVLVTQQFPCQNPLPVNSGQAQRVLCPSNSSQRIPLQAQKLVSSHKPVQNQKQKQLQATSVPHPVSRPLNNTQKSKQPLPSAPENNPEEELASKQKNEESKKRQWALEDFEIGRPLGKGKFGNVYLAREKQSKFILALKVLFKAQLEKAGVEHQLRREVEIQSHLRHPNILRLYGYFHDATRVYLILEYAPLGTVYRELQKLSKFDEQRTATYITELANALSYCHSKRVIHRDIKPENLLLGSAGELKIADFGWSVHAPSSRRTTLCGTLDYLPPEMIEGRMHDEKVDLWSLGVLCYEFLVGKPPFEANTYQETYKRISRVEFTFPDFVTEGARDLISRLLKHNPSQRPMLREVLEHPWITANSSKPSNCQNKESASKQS
AURKC, sequence (Q9UQB9 whole entry): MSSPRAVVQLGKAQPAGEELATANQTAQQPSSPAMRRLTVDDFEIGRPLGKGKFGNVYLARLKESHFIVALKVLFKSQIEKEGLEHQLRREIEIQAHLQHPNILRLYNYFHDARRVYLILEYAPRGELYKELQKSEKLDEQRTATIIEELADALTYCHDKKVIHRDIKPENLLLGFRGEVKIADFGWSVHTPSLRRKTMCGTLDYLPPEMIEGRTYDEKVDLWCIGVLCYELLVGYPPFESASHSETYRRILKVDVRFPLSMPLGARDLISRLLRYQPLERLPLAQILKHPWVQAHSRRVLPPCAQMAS
FGFR3 (G697C), sequence (P22607 23-806 G697C): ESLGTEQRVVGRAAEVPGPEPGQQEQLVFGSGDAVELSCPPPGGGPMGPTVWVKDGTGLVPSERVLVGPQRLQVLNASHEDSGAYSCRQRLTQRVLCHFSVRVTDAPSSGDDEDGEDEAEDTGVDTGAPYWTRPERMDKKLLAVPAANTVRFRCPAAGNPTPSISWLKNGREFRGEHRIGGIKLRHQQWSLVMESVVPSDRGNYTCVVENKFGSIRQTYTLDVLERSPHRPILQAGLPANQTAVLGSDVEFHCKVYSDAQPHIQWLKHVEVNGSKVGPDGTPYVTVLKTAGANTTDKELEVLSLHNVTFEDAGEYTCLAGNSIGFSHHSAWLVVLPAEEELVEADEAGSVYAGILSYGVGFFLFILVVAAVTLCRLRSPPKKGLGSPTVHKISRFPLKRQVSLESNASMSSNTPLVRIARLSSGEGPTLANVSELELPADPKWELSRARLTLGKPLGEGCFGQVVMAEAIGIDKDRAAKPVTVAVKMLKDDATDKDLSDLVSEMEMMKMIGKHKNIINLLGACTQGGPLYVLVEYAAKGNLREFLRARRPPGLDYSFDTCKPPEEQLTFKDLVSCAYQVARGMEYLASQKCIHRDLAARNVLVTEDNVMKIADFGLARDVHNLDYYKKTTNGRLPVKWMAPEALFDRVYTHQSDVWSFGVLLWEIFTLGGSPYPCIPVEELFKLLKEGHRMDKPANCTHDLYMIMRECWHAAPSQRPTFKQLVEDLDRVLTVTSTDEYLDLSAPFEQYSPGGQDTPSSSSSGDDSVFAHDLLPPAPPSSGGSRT
ACVR2B, sequence (Q13705 19-512): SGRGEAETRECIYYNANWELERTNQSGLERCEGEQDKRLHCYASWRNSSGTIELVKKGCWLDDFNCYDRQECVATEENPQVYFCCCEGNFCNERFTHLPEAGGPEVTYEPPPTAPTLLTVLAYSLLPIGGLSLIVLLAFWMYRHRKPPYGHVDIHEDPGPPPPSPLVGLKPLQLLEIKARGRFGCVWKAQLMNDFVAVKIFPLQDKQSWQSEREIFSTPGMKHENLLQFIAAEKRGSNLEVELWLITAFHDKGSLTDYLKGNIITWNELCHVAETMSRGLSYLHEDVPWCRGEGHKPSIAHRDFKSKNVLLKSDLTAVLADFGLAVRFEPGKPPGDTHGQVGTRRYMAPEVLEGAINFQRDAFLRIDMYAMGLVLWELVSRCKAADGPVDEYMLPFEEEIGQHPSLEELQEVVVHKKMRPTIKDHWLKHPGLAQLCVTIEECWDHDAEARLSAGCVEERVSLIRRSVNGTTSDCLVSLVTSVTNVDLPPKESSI

## Cc1cc(Oc2cc(NC(=O)C3CC3)ncn2)ccc1NC(=O)Nc1ccc(Cl)c(C(F)(F)F)c1 [CBT-102]
TRKB
  remaining activity at 1 µM: 71%
ADCK3
  remaining activity at 1 µM: 100%
DCAMKL2
  remaining activity at 1 µM: 95%
DAPK2
  remaining activity at 1 µM: 95%
[1]
  remaining activity at 1 µM: 82%
AURKA
  remaining activity at 1 µM: 86%
[2]
  effect on T cell surface marker CD3 (IHC): no significant effect
[3]
  remaining activity at 1 µM: 100%
WNK4
  remaining activity at 1 µM: 89%
MRCKB
  remaining activity at 1 µM: 100%
YANK2
  remaining activity at 1 µM: 100%
EPHA8
  remaining activity at 1 µM: 9.1%
ERK3
  remaining activity at 1 µM: 100%
AURKC
  remaining activity at 1 µM: 33%
ACVR2B
  remaining activity at 1 µM: 89%
DDR1
  remaining activity at 1 µM: 0.3%
MKNK2
  remaining activity at 1 µM: 83%
SYK
  remaining activity at 1 µM: 100%
NEK3
  remaining activity at 1 µM: 100%
KIT (V559D, V654A)
  remaining activity at 1 µM: 2.8%
HUNK
  remaining activity at 1 µM: 68%
MAP3K15
  remaining activity at 1 µM: 99%
RIPK2
  remaining activity at 1 µM: 28%
IKK-alpha
  remaining activity at 1 µM: 93%
ULK1
  remaining activity at 1 µM: 98%
MET
  remaining activity at 1 µM: 80%
MARK2
  remaining activity at 1 µM: 76%
PRKD2
  remaining activity at 1 µM: 100%
[4]
  effect on T cell surface marker CD4 (IHC): no significant effect
CDKL3
  remaining activity at 1 µM: 4.3%
p38-gamma
  remaining activity at 1 µM: 28%
CLK2
  remaining activity at 1 µM: 100%
BRK
  remaining activity at 1 µM: 89%
CLK3
  remaining activity at 1 µM: 100%
PLK4
  remaining activity at 1 µM: 98%
CSNK1E
  remaining activity at 1 µM: 100%
FGFR3 (G697C)
  remaining activity at 1 µM: 100%
PIK3CA (E545A)
  remaining activity at 1 µM: 100%
